Measured values taken from patent publication US6858638B2, “Substituted indazoles, compositions containing them, method of production and use” (Aventis Pharma S.A., priority 2002, dated 2005).
Structures can show the parent of a compound that is named as a salt.

What was measured:
human FAK = target: T1, human FAK (Homo sapiens, UniProt Q05397); assay: FAK autophosphorylation inhibition, time resolved fluorescence (HTRF) assay; format: biochemical; settings: for inhibition at 30 µM: 30 μM (values marked *), read-out: FAK % inhib at 30* μM; for inhibition at 10 µM: 10 μM (values without asterisk), read-out: FAK % inhib at 10 μM
T1 construct: The complete cDNA of human FAK; made in house; host or cells: baculovirus expression system (vector pFastBac HTc)
T1 sequence (Q05397 whole entry): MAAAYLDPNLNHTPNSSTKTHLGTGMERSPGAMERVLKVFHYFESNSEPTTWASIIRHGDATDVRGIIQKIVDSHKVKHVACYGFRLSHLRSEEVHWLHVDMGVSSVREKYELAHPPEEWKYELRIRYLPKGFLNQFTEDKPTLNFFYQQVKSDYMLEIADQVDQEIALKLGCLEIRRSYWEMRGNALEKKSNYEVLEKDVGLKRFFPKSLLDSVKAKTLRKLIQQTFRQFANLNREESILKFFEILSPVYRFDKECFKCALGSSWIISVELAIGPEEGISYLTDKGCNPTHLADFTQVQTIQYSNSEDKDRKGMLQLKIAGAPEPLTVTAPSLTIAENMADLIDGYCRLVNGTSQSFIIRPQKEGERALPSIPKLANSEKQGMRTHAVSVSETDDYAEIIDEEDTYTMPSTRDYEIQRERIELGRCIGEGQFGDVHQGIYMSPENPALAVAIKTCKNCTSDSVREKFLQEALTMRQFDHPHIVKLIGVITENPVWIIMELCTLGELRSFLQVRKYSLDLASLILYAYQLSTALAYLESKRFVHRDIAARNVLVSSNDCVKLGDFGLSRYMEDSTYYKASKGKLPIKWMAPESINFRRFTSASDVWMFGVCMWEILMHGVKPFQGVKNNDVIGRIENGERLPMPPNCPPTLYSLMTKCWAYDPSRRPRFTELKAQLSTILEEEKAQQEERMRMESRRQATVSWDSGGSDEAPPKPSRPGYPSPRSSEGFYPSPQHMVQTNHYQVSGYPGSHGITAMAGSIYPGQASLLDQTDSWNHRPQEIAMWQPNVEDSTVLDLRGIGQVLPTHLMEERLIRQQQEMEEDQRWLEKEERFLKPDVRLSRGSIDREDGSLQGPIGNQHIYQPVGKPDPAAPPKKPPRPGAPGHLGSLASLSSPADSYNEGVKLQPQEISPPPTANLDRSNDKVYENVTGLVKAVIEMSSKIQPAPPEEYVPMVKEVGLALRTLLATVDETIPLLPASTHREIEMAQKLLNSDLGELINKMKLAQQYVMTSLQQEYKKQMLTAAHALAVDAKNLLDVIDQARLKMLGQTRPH
Procedure, shortened: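 Autophosphorylation was detected by europium-cryptate anti-pTyr and XL665 anti-His energy transfer, percent inhibition from the 665/620 ratio relative to no-compound wells. Enzyme: His-FAK full length, 6.6 µg/ml, incubated 1 h at 37 °C, pH 7.2, 15 µM ATP.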

human KDR enzyme = target: T2, human KDR enzyme (Homo sapiens, UniProt P35968); assay: KDR substrate (PLCγ) phosphorylation, scintillation assay; format: biochemical; settings: 10 μM; read-out: KDR % inhib at 10 μM
T2 construct: The cytoplasmic domain of the human KDR enzyme; GST; made in house; host or cells: SF21 insect cells (baculovirus)
T2 sequence (P35968 786-1356 limits assumed): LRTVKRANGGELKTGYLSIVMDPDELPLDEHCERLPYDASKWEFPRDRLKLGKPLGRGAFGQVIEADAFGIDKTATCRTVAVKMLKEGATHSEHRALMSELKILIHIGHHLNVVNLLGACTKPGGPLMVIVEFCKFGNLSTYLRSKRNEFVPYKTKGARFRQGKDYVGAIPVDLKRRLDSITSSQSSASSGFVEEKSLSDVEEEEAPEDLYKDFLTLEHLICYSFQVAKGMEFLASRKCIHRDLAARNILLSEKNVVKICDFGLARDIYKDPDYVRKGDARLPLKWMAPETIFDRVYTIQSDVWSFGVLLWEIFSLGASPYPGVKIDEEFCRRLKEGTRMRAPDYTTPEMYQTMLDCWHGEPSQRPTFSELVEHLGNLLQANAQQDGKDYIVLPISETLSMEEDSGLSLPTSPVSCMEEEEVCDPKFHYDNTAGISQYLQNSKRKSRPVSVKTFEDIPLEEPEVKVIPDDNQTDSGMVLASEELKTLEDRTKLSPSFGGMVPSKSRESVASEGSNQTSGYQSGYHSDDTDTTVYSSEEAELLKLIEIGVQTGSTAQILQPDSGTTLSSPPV
Procedure, shortened: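 Values are percent inhibition relative to the compound-free control, read by scintillation counting of 33P incorporation after EDTA stop. Baculovirus/SF21-expressed GST-KDR cytoplasmic domain (100 ng) acted for 1 h at 37 °C in pH 7.2 MOPS kinase buffer. The substrate was GST-PLCγ SH2-SH3 (2 μg), added with γ33P-ATP and 2 μM unlabeled ATP.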

Aurora2 kinase = target: T3, Aurora2 kinase (Homo sapiens, UniProt O14965); assay: Aurora2 kinase radioactivity scintillation assay using nickel chelate (NuMA substrate); format: biochemical; settings: 10 μM; read-out: Aurora2 % inhib at 10 μM
T3 construct: A complete recombinant Aurora2 enzyme; His tag (N); made in house; host or cells: E. coli
T3 sequence (O14965 1-403): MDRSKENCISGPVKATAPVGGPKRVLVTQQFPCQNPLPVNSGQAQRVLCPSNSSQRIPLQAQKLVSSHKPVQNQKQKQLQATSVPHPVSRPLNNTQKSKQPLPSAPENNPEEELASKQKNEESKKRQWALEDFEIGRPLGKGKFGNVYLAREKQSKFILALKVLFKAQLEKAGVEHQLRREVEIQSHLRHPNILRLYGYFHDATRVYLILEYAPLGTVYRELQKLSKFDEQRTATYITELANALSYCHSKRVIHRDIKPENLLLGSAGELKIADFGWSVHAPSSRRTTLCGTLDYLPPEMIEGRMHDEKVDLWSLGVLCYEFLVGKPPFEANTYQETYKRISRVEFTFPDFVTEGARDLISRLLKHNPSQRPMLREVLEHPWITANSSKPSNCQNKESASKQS
Procedure, shortened: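 Read-out is 33P incorporation into His-NuMA (Q1687-H2101, 0.5 μM) captured on nickel chelate, after 30 min at 37 °C with 0.02 μM His-Aurora2 and 1 μM ATP. Expressed as percentage inhibition of uncompounded control activity, background subtracted.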

[1] = target: T4, human IGF1R cytoplasmic domain (Homo sapiens, UniProt P08069); assay: IGF1R autophosphorylation inhibition, time resolved fluorescence (HTRF) assay; format: biochemical; settings: 10 μM; read-out: IGF1R % inhib at 10 μM
T4 construct: The human IGF1R cytoplasmic domain was cloned; made in house; host or cells: SF21 insect cells (baculovirus)
T4 sequence (P08069 960-1367 limits assumed): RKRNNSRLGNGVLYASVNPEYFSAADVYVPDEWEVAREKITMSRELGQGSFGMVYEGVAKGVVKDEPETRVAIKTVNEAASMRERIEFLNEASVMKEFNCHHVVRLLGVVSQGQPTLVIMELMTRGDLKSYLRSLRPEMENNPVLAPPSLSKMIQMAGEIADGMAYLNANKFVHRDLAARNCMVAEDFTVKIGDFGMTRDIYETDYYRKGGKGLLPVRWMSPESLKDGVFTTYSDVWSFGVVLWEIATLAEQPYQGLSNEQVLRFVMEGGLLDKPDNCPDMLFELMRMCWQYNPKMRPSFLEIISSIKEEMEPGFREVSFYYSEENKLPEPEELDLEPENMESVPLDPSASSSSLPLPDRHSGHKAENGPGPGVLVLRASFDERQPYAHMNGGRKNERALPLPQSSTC
Procedure, shortened: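 GST-tagged human IGF1R cytoplasmic domain from SF21 cells incubated with compound in 50 mM Hepes pH 7.5, 5 mM MnCl2, 50 mM NaCl, […] ATP. Autophosphorylation detected by HTRF (Eu-K anti-phosphotyrosine, XL665 anti-GST) after EDTA/KF stop; percentage inhibition versus no-compound control.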

| SMILES | melting point [°C] | inhibition at 30 µM (human FAK) [%] | inhibition at 10 µM (human KDR enzyme) [%] | inhibition at 10 µM (human FAK) [%] | inhibition at 10 µM (Aurora2 kinase) [%] | inhibition at 10 µM [1] [%] |
| --- | --- | --- | --- | --- | --- | --- |
| O=S(=O)(Oc1ccc2[nH]ncc2c1)c1cccc(F)c1 (as salt: benzenesulfonate) [Example 17, 1H-Indazol-5-yl 3-fluorobenzenesulfonate] | 104 |  |  |  |  |  |
| CS(=O)(=O)c1ccccc1S(=O)(=O)Nc1ccc2[nH]nc(C#N)c2c1 (hydrate or solvate) [Example 5, N-(3-Cyano-1H-indazol-5-yl)-2-methylsulfonylbenzenesulfonamide] | 272 |  |  |  |  |  |
| CS(=O)(=O)Nc1n[nH]c2ccc(NS(=O)(=O)c3cccc(F)c3)cc12 (hydrate or solvate) [Example 27, 3-Fluoro-N-(3-methylsulfonylamino-1H-indazol-5-yl)benzenesulfonamide] | 230 |  |  |  |  |  |
| CC(=O)Nc1n[nH]c2ccc(NS(=O)(=O)c3cccc(F)c3)cc12 (hydrate or solvate) [Example 28, N-[5-(3-Fluorobenzenesulfonylamino)-1H-indazol-3-yl)acetamide] | 246 |  |  |  |  |  |
| O=C(Nc1n[nH]c2ccc(NS(=O)(=O)c3cc(F)cc(F)c3)cc12)c1ccccc1 (hydrate or solvate) [Example 46, N-[5-(3,5-Difluorobenzenesulfonylamino)-1H-indazol-3-yl]benzamide] | 246 |  |  |  |  |  |
| CC(=O)Nc1ccccc1-c1n[nH]c2ccc(NS(=O)(=O)c3cccc(F)c3)cc12 (hydrate or solvate) [Example 47, N-{2-[5-(3-Fluorobenzenesulfonylamino)-1H-indazol-3-yl]phenyl}acetamide] | 135 |  |  |  |  |  |
| CS(=O)(=O)c1ccccc1S(=O)(=O)Nc1ccc2[nH]nc(-c3ccc(C(=O)O)cc3)c2c1 (hydrate or solvate) [Example 69, 4-[5-(2-Methylsulfonylbenzenesulfonamino)-1H-indazol-3-yl]benzoic acid] | 199 |  |  |  |  |  |
| N#Cc1n[nH]c2ccc(NS(=O)(=O)c3cccc(F)c3)cc12 [Example 4, N-(3-Cyano-1H-indazol-5-yl)-3-fluorobenzenesulfonamide] | 227 | 85 | 24 |  |  |  |
| O=S(=O)(Nc1ccc2[nH]ncc2c1)c1ccc(Cl)c(Cl)c1 [Example 14, 3,4-Dichloro-N-(1H-indazol-5-yl)benzenesulfonamide] | 209 |  |  | 42 |  |  |
| CS(=O)(=O)c1ccccc1S(=O)(=O)Nc1ccc2[nH]nc(C(=O)Nc3ccccc3)c2c1 [Example 18, N-Phenyl-5-(2-methylsulfonylbenzenesulfonylamino)-1H-indazole-3-carboxamide] | 258 |  | 18 | 89 | 97 |  |
| O=C(Nc1n[nH]c2ccc(NS(=O)(=O)c3cccc(F)c3)cc12)c1ccccc1 [Example 23, N-[5-(3-Fluorobenzenesulfonylamino)-1H-indazol-3-yl]benzamide] | 225 |  |  | 93 | 99 |  |
| O=S(=O)(Nc1ccc2[nH]ncc2c1)c1ccccc1 [Example 24, N-(1H-Indazol-5-yl)benzenesulfonamide] | 179 |  | 10 | 76 | 60 |  |
| Cc1n[nH]c2ccc(NS(=O)(=O)c3ccc(Cl)c(Cl)c3)cc12 [Example 25, 3,4-Dichloro-N-(3-methyl-1H-indazol-5-yl)benzenesulfonamide] | 184 | 38 | 11 |  | 50 |  |
| COc1ccc(-c2n[nH]c3ccc(NS(=O)(=O)c4ccccc4)cc23)cc1 [Example 31, N-[3-(4-Methoxyphenyl)-1H-indazol-5-yl]benzenesulfonamide] | 172 |  | 98 | 75 | 90 |  |
| CC(=O)Nc1ccccc1-c1n[nH]c2ccc(NS(=O)(=O)c3ccccc3S(C)(=O)=O)cc12 [Example 48, N-{2-[5-(2-Methylsulfonylbenzenesulfonylamino)-1H-indazol-3-yl]phenyl}acetamide] | 245 |  | 9 | 5 | 42 |  |
| CS(=O)(=O)c1ccccc1S(=O)(=O)Nc1ccc2[nH]nc(-c3ccsc3)c2c1 [Example 51, 2-Methylsulfonyl-N-(3-thiophen-3-yl-1H-indazol-5-yl)benzenesulfonamide] | 249 |  | 55 | 90 | 88 |  |
| COC(=O)c1ccc(-c2n[nH]c3ccc(NS(=O)(=O)c4ccccc4S(C)(=O)=O)cc23)cc1 [Example 68, Methyl 4-[5-(2-methylsulfonylbenzenesulfonamino)-1H-indazol-3-yl]benzoate] | 244 |  | 85 | 91 | 95 |  |
| CS(=O)(=O)c1ccccc1S(=O)(=O)Nc1ccc2[nH]nc(-c3cccc(OC(F)(F)F)c3)c2c1 [Example 219, N-[3-(3-Trifluoromethoxy-phenyl)-1H-indazol-5-yl]-2-methanesulfonyl-benzenesulfonamide] |  |  | 31 | 87 | 86 | 60 |
| CS(=O)(=O)c1ccc(-c2n[nH]c3ccc(NS(=O)(=O)c4ccccc4S(C)(=O)=O)cc23)cc1 [Example 220, 2-Methanesulfonyl-N-[3-(4-methanesulfonylphenyl)-1H-indazol-5-yl]-benzenesulfonamide] |  |  | 88 | 96 | 95 | 75 |
| CS(=O)(=O)c1ccccc1S(=O)(=O)Nc1ccc2[nH]nc(-c3cccc(F)c3F)c2c1 [Example 221, N-[3-(2,3-Difluorophenyl)-1H-indazol-5-yl]-2-methanesulfonyl-benzenesulfonamide] |  |  | 60 | 94 | 84 | 50 |
| Cc1cc(-c2n[nH]c3ccc(NS(=O)(=O)c4ccccc4S(C)(=O)=O)cc23)ccc1F [Example 222, N-[3-(4-Fluoro-3-methyl-phenyl)-1H-indazol-5-yl]-2-methanesulfonyl-benzenesulfonamide] |  |  | 49 | 94 | 92 | 66 |
| CS(=O)(=O)c1ccccc1S(=O)(=O)Nc1ccc2[nH]nc(-c3cccc(OCc4ccccc4)c3)c2c1 [Example 223, N-[3-(3-Benzyloxyphenyl)-1H-indazol-5-yl]-2-methanesulfonyl-benzenesulfonamide] |  |  | 23 | 70 | 31 | 0 |
| Cc1ccc(-c2n[nH]c3ccc(NS(=O)(=O)c4ccccc4S(C)(=O)=O)cc23)cc1F [Example 224, N-[3-(3-Fluoro-4-methyl-phenyl)-1H-indazol-5-yl]-2-methanesulfonyl-benzenesulfonamide] |  |  | 71 | 91 | 92 | 70 |
| CS(=O)(=O)c1ccccc1S(=O)(=O)Nc1ccc2[nH]nc(-c3cc(Cl)ccc3Cl)c2c1 [Example 225, N-[3-(2,5-Dichlorophenyl)-1H-indazol-5-yl]-2-methanesulfonyl-benzenesulfonamide] |  |  | 12 | 51 | 49 | 27 |
